Consider 32 molecules from the METLIN SMRT retention time set (Domingo-Almenara et al. 2019).

The nature of this data set: gradient 5% acetonitrile 3 min, to 50% in 2 min, to 85% in 15 min, held 3 min, 100 µL/min. The note with it: column: Zorbax Extend-C18 2.1 x 50 mm; eluents: water / acetonitrile, 0.1% formic acid. In short, it runs like this: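 The system's dead and dwell volumes were 40 μL and 900 μL, with a Zorbax Extend-C18 column (2.1 × 50 mm, 1.8 μm) run at 100 μL/min in water and acetonitrile containing 0.1% formic acid each. Pure standards were analyzed in mixtures of ~100 molecules by HPLC–quadrupole time-of-flight mass spectrometry in positive and negative ionization mode. Retention time was assigned from computationally picked, manually inspected adduct peaks.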
The molecule `O=C(NCC1CCCO1)c1cn(-c2cc(-c3nc(C4CC4)no3)ccn2)cn1` (configuration not stated) had an RP-LC retention time of 762 s. The value for `O=C(Nc1ccc2c(c1)OCCO2)C1CCCN(c2ccnc(-c3ccc(F)cc3)n2)C1` (configuration not stated) was 691 s; that for `CC(C)c1ccc(NC(=O)C2CCCN(C(=O)C3Sc4ccccc4NC3=O)C2)cc1` (configuration not stated) was 913 s. Molecule `O=C(NCCC1CCN(S(=O)(=O)c2ccc(F)cc2)CC1)NCc1ccc(F)cc1` displayed an RP-LC retention time of 852 s.

`Cn1c(=O)c(SCC(=O)NC2CCN(Cc3ccccc3)CC2)nc2ccccc21` yielded an RP-LC retention time of 624 s. The value for `O=C(CCC(=O)N1CC2CCCN2c2ccccc21)NCCCN1CCCCC1` (configuration not stated) was 646 s.

In turn, `COc1ccc(NC2=NS(=O)(=O)C(c3ccc(OC)cc3)=C2C)cc1` yielded an RP-LC retention time of 910 s. Under `Cc1ccc2c(=O)c3c([nH]c2c1C)CCN(CC(=O)Nc1ccc2c(c1)OCCO2)C3` stands 667 s; under `Cc1cc(C(=O)N2CCCn3ccnc3C2C2CCCC2)on1` (configuration not stated), 599 s. As to `COc1cccc(N2CCN(CC(O)c3ccc(C)cc3)CC2)c1` (configuration not stated), the RP-LC retention time is 677 s. Under `CCC(=O)N1CCC(c2noc(CO)n2)C1` (configuration not stated) stands 545 s. As to `C=CCN1CC(=O)N2Cc3[nH]c4ccccc4c3C[C@H]2C1=O`, the RP-LC retention time came to 708 s.

With `Cc1cc(=O)n(CC(=O)N(C)c2ccccc2)c(N2CCOCC2)n1`, the RP-LC retention time is 657 s.

For `O=C(NCc1cccc(Cl)c1)C1CCCN(c2nc3cccnc3n(Cc3ccccc3)c2=O)C1` (configuration not stated), the RP-LC retention time amounted to 1190 s.

`O=C(CN1CCC2(CC1)N=C(c1ccccc1)C(=O)N2)Nc1ccc(Br)cc1F` came in with an RP-LC retention time of 685 s. Under `CC1OC(O[C@H]2C[C@@H](O)[C@]3(CO)[C@H]4[C@H](O)C[C@]5(C)[C@@H](C6=CC(=O)OC6)CC[C@]5(O)[C@@H]4CC[C@]3(O)C2)C(O)C(O)C1O` (some centres not stated) stands 594 s; under `CCCNC(=O)C1CCCN(c2ccc(SCC(=O)Nc3ccc(C)c(C)c3)nn2)C1` (configuration not stated), 678 s; under `CCC1Oc2ccc(S(=O)(=O)N3CCC(C(=O)Nc4ccccc4Cl)CC3)cc2NC1=O` (configuration not stated), 907 s. `O=C(Cn1cc(-c2ccccc2)c2ncn(C3CC3)c(=O)c21)Nc1ccc2c(c1)OCO2` returned an RP-LC retention time of 826 s. On to `CC(C)NC(=O)c1nn(-c2ccccc2F)nc1CO`, for which the RP-LC retention time worked out at 768 s. In turn, `CCC(C)Nc1nc(N(C)C)nc(-n2cnc(SC)n2)n1` (configuration not stated) gave an RP-LC retention time of 942 s. Under `O=C(NC1CCN(c2cc(-c3ccc(F)cc3)[nH]n2)C1)c1cccc(F)c1` (configuration not stated) stands 735 s; under `CCOC(=O)c1c(S(=O)(=O)N2CCC(C(=O)NCc3ccc(F)cc3)CC2)c(C)n(CC)c1C`, 835 s. With `CC(=O)N1CCN(c2nc(-c3ccccc3)c3cc(Br)ccc3n2)CC1`, the RP-LC retention time was determined as 1010 s. Take `N#Cc1cccc(-c2cn3c(n2)N(C(=O)C2CCC2)CCC3)c1`: the RP-LC retention time is 690 s. The value for `CSc1nnc(-c2nn(C)c3c2CN(C(=O)c2ccccc2Br)CC3)n1C` was 717 s; that for `Cc1noc(COC2CCCN(C(=O)C3(c4ccccc4)CC3)C2)n1` (configuration not stated) was 791 s; that for `Cc1cc(C)cc(NC(=O)C2CCc3sc(C(=O)N4CCOCC4)cc3C2)c1` (configuration not stated) was 856 s. The value for `O=C(c1ccc(Oc2ccccc2)cc1)N1CC(c2nc3ccccc3[nH]2)C1` was 623 s; that for `COCc1noc([C@@H]2CC(F)(F)CN2C(=O)c2coc(C)n2)n1` was 717 s. For the molecule `C1CCCC(NC2=NCCO2)CCC1`, the RP-LC retention time was determined as 680 s. The value for `CCOc1ccc(NC(=O)C2CCCN(c3ccc(=O)n(-c4ccc(C)c(Cl)c4)n3)C2)cc1` (configuration not stated) was 1010 s.
